Where two headings read alike, the source gives them in different places.
Legend:
PC-3 cells = assay: Transwell migration assay; type: cell-based, human; settings: 24 h, relative to untreated cells
Procedure: Transwell migration assay was used on PC-3 cells to further investigate the effect of 4k and 5a on cell migration.
PC-3 cells in logarithmic phase were harvested and seeded onto six-well cell plates at a density of 4 × 10^4 cells per well, and were cultured for 24 h. […] Then these cells were harvested and seeded onto the top chambers of transwell filters (Corning) at a concentration of 4 × 10^4 cells with 200 μL of FBS-free medium per well in 24-well culture plates, while the bottom chambers were added 600 μL of medium containing 10% FBS. The cells were cultured for additional 24 h, then the cells that migrated to the bottom of the top chambers were fixed with 4% paraformaldehyde and subsequently stained with crystal violet solution. Images were taken by an inverted microscope and analysed by Fiji/ImageJ software.

MCF-7 cells = assay: MTT antiproliferative assay, MCF-7; type: cell-based; settings: Homo sapiens, read-out: IC50 (μM) ± SD MCF-7
Procedure: The in vitro antiproliferative activities of all target compounds 4a−k, 5a−h, and 6a−h were assayed by MTT method using human gastric cancer cell line SGC-7901 and human breast cancer cell line MCF-7.
All cell lines tested in this study were purchased from the American Type Culture Collection (ATCC, Manassas, VA). SGC-7901 (human gastric adenocarcinoma), HCT-116 (human colon carcinoma), and A549 (human pulmonary carcinoma) cells were cultured in RPMI-1640 medium containing 10% foetal serum (FBS) and 1% penicillin-streptomycin solution (100×). MCF-7 (human breast carcinoma) cells were cultured in DMEM medium containing 10% foetal serum (FBS) and 1% penicillin-streptomycin solution (100×). PC-3 (human prostate carcinoma) cells were cultured in Ham’s F-12K medium containing 10% foetal serum (FBS) and 1% penicillin-streptomycin solution (100×). All cells were cultured at 37 °C in a humidified atmosphere containing 5% CO2.
Cells grown in logarithmic phase were harvested and seeded onto 96-well cell plates at a density of 4 ∼ 5 × 10^3 cells per well (various from cell type) and were cultured for 24 h. Different concentrations of compounds were added into the wells, and the cells were cultured for another 72 h. The medium was removed, then 20 μL of MTT (5 mg/mL in PBS) was added to each well and the cells were incubated for 4 h. 150 μL of DMSO was added to each well to dissolve the formazan, and the absorbance at 490 nm of each well was measured by a microplate reader. IC50 values were calculated by SPSS software.

cleaved caspase-9 = assay: Western blot assay, cleaved caspase-9; type: cell-based, human; settings: PC-3 cells, dose-dependent manner
Procedure: The expression of cell apoptosis-related proteins (Bax, Bcl-2, and cleaved caspase-9) after treatment of 4k and 5a was also measured by western blot assay.
PC-3 cells in logarithmic phase were harvested and seeded onto culture plates, and were cultured for 24 h. […] The proteins of PC-3 cells were extracted by RIPA buffer containing 1% PMSF (Beyotime Biotechnology, China). The protein concentration was measured by BCA Assay Kit (SEVEN Biotech, China). Equal amounts and concentration of protein were diluted in 5× loading buffer (Beyotime, China) and denatured by boiled for 5 min. Protein samples were separated on 12.5% SDS-PAGE gels (EpiZyme, China) and transferred to PVDF membranes (Millipore Corporation, Billerica, MA, USA). The membranes were blocked in QuickBlockTM Block Buffer (SEVEN Biotech, China) for 10 min at room temperature. Then the membranes were incubated with the primary antibodies overnight at 4 °C, including Cyclin B1 (1:2000, Proteintech, China), CDK1 (1:5000, Proteintech, China), BAX (1:5000, Proteintech, China), Bcl2 (1:1000, Proteintech, China), Caspase 9/p35/p10 (1:1000, Proteintech, China), and β-actin (1:20 000, Proteintech, China). […] The protein signals were detected by using chemiluminescent reagents kit (NCM Biotech, China) and visualised with ChemiDocImaging System (Tanon 5200, China). Protein expressions was quantified by using Fiji/ImageJ software.

| Structure (SMILES) | percentage of migrated cells (PC-3 cells; PC-3, 5 nM) | percentage of migrated cells (PC-3 cells; PC-3, 10 nM) | percentage of migrated cells (PC-3 cells; PC-3, 20 nM) | IC50 (MCF-7 cells; MCF7, 72 h) | level of cleaved caspase-9 (cleaved caspase-9) | IC50 (MCF-7 cells; MCF7, 72 h drug exposure, MTT assay) |
| --- | --- | --- | --- | --- | --- | --- |
| COc1cc(C2=NCC(=O)Nc3cn(-c4ccccc4)nc32)cc(OC)c1OC [5a, 2-Phenyl-8–(3,4,5-trimethoxyphenyl)-2,6-dihydropyrazolo[4,3-e][1,4]diazepin-5(4H)-one] | 53.6% | 49.1% | 27.8% | 1.78 ± 0.617 µM | increase |  |
| COc1cc(C(=O)c2nn(-c3ccc(N)cc3)cc2N)cc(OC)c1OC [4k, (4-amino-1–(4-aminophenyl)-1H-pyrazol-3-yl)(3,4,5-trimethoxyphenyl)methanone] | 60.4% | 25.7% | 18.7% |  | increase | 0.031 ± 0.005 µM |
